From ChEMBL document CHEMBL1127066, “Discovery and structure-activity relationship of a series of 1-carba-1-dethiacephems exhibiting activity against methicillin-resistant Staphylococcus aureus” (J Med Chem, 1993) come the findings set out here.

Molecules are shown by their SMILES.

Holding throughout (type): functional
The test system of one assay is Escherichia coli. The assay is described as follows: In vitro evaluation of antimicrobial activity against Escherichia coli EC14 strain.
The test system of another assay is Enterobacter cloacae. The assay is described as follows: In vitro evaluation of antimicrobial activity against Enterobacter cloacae EB5 strain.
For the next assay, the system named is Haemophilus influenzae. The assay is described as follows: In vitro antimicrobial activity against Haemophilus influenzae C.L. strain.
In a further assay the test system is Klebsiella. Nature of the assay: In vitro antimicrobial activity against Klebsiella X26 strain.
Assay [1] relates to Pseudomonas aeruginosa. The assay is described as follows: Antimicrobial activity against Pseudomonas PS18 strain.
In assay [2] the test system is Pseudomonas aeruginosa. The assay is described as follows: In vitro antimicrobial activity against Pseudomonas X239 strain.
The test system of assay [3] is Staphylococcus epidermidis. Nature of the assay: In vitro antimicrobial activity against Staphylococcus epidermidis 222 strain.
For assay [4], the system named is Staphylococcus epidermidis. Nature of the assay: In vitro antimicrobial activity against Staphylococcus epidermidis 270 strain.
In assay [5] the test system is Staphylococcus aureus. Nature of the assay: In vitro antimicrobial activity against Staphylococcus aureus S13E strain.
The subject of assay [6] is Staphylococcus aureus. Nature of the assay: In vitro antimicrobial activity against Staphylococcus aureus X400 strain.
Another assay relates to Streptococcus pneumoniae. The assay is described as follows: In vitro antimicrobial activity against Streptococcus pneumoniae PARK strain.
The test system of assay [7] is Staphylococcus aureus. The assay is described as follows: In vitro antimicrobial activity against Staphylococcus aureus X1.1 strain.

On to `Cc1csc(SC2=C(C(=O)[O-])N3C(=O)[C@@H](NC(=O)/C(=N/OCCF)c4csc(N)n4)[C@H]3CC2)n1.[Na+]`, for which the MIC with Escherichia coli is 0.25 µg/mL; in the assay on Enterobacter cloacae it was 2 µg/mL; against Haemophilus influenzae, under 0.008 µg/mL; in the assay on Klebsiella, under 0.008 µg/mL; against Pseudomonas aeruginosa [1] it was 32 µg/mL; with Pseudomonas aeruginosa [2], 64 µg/mL. In addition, the MIC is 0.5 µg/mL in assay [3]; 4 µg/mL in assay [4]; 4 µg/mL against Staphylococcus aureus [5]; 64 µg/mL against Staphylococcus aureus [6]; under 0.008 µg/mL in the assay on Streptococcus pneumoniae; 0.5 µg/mL in the assay on Staphylococcus aureus [7].

Turning to `Nc1nc(/C(=N\OCCF)C(=O)N[C@@H]2C(=O)N3C(C(=O)[O-])=C(Sc4nc(-c5ccccc5)cs4)CC[C@H]23)cs1.[Na+]`, the MIC against Escherichia coli was 0.25 µg/mL; against Enterobacter cloacae, 1 µg/mL; against Haemophilus influenzae it was 0.03 µg/mL; against Klebsiella, 0.015 µg/mL; against Pseudomonas aeruginosa [1] it was 64 µg/mL; in the assay on Pseudomonas aeruginosa [2], 8 µg/mL. For the same compound, the MIC in [3] was 0.25 µg/mL; in assay [4], 0.5 µg/mL; in the assay on Staphylococcus aureus [5], 4 µg/mL; with Staphylococcus aureus [6] it was 4 µg/mL; against Streptococcus pneumoniae it was under 0.008 µg/mL; against Staphylococcus aureus [7], 0.125 µg/mL.

For the compound `CCCCOC(=O)c1csc(SC2=C(C(=O)[O-])N3C(=O)[C@@H](NC(=O)/C(=N/OCCF)c4csc(N)n4)[C@H]3CC2)n1.[Na+]`, the MIC was 0.5 µg/mL with Escherichia coli; 4 µg/mL with Enterobacter cloacae; 0.03 µg/mL in the assay on Haemophilus influenzae; 0.03 µg/mL with Klebsiella; 128 µg/mL against Pseudomonas aeruginosa [1]; over 128 µg/mL in the assay on Pseudomonas aeruginosa [2]. Besides, the MIC in [3] was 1 µg/mL; in assay [4], 4 µg/mL; against Staphylococcus aureus [5] it was 16 µg/mL; in the assay with Staphylococcus aureus [6], 64 µg/mL; with Streptococcus pneumoniae, under 0.008 µg/mL; with Staphylococcus aureus [7], 0.5 µg/mL.

As for `Nc1nc(/C(=N\OCCF)C(=O)N[C@@H]2C(=O)N3C(C(=O)[O-])=C(Sc4nc5c(N)ncnc5s4)CC[C@H]23)cs1.[Na+]`, the MIC against Escherichia coli was 0.25 µg/mL; against Enterobacter cloacae, 1 µg/mL; with Haemophilus influenzae it was 0.03 µg/mL; against Klebsiella, 0.03 µg/mL; against Pseudomonas aeruginosa [1], 64 µg/mL; in the assay with Pseudomonas aeruginosa [2], over 128 µg/mL. Further, the MIC in [3] was 0.5 µg/mL; in assay [4] it was 2 µg/mL; in the assay on Staphylococcus aureus [5] it was 16 µg/mL; in the assay on Staphylococcus aureus [6], 32 µg/mL; against Streptococcus pneumoniae, under 0.008 µg/mL; against Staphylococcus aureus [7], 0.125 µg/mL.

Consider `Cc1nc(SC2=C(C(=O)[O-])N3C(=O)[C@@H](NC(=O)/C(=N/OCCF)c4csc(N)n4)[C@H]3CC2)sc1C.[Na+]`, for which the MIC against Escherichia coli is 0.5 µg/mL; in the assay on Enterobacter cloacae, 4 µg/mL; in the assay with Haemophilus influenzae, 0.015 µg/mL; in the assay with Klebsiella, 0.06 µg/mL; in the assay with Pseudomonas aeruginosa [1], 64 µg/mL; against Pseudomonas aeruginosa [2], 8 µg/mL. Besides, the MIC in assay [3] was 1 µg/mL; in assay [4] it was 2 µg/mL; in the assay with Staphylococcus aureus [5], 4 µg/mL; against Staphylococcus aureus [6], 32 µg/mL; in the assay on Streptococcus pneumoniae, under 0.008 µg/mL; with Staphylococcus aureus [7] it was 0.5 µg/mL.

On to `Nc1nc(/C(=N\OCCF)C(=O)N[C@@H]2C(=O)N3C(C(=O)[O-])=C(SC4=NCCS4)CC[C@H]23)cs1.[Na+]`, for which the MIC with Escherichia coli is 0.125 µg/mL; in the assay on Enterobacter cloacae, 1 µg/mL; against Haemophilus influenzae, under 0.008 µg/mL; in the assay with Klebsiella, 0.015 µg/mL; in the assay with Pseudomonas aeruginosa [1], 64 µg/mL; against Pseudomonas aeruginosa [2], under 128 µg/mL. Also, the MIC in assay [3] was 1 µg/mL; in assay [4], 2 µg/mL; with Staphylococcus aureus [5], 16 µg/mL; against Staphylococcus aureus [6], 64 µg/mL; in the assay on Streptococcus pneumoniae it was under 0.008 µg/mL; in the assay with Staphylococcus aureus [7], 0.5 µg/mL.

As for `Nc1nc(/C(=N\OCCF)C(=O)N[C@@H]2C(=O)N3C(C(=O)[O-])=C(Sc4ncccn4)CC[C@H]23)cs1.[Na+]`, the MIC against Escherichia coli is 0.125 µg/mL; in the assay on Enterobacter cloacae it was 1 µg/mL; against Haemophilus influenzae it was 0.03 µg/mL; in the assay with Klebsiella it was 0.015 µg/mL; in the assay on Pseudomonas aeruginosa [1], over 128 µg/mL; in the assay on Pseudomonas aeruginosa [2], over 128 µg/mL. The MIC in assay [3] is 4 µg/mL; in assay [4] it was 8 µg/mL; with Staphylococcus aureus [5] it was 32 µg/mL; with Staphylococcus aureus [6] it was 128 µg/mL; in the assay on Streptococcus pneumoniae, 0.03 µg/mL; against Staphylococcus aureus [7], 2 µg/mL.

As for `CCOc1nn(C)c(SC2=C(C(=O)[O-])N3C(=O)[C@@H](NC(=O)/C(=N/OCCF)c4csc(N)n4)[C@H]3CC2)nc1=O.[Na+]`, the MIC was 0.5 µg/mL in the assay with Escherichia coli; 2 µg/mL against Enterobacter cloacae; 0.03 µg/mL with Haemophilus influenzae; 0.06 µg/mL in the assay with Klebsiella; over 128 µg/mL in the assay with Pseudomonas aeruginosa [1]; 128 µg/mL against Pseudomonas aeruginosa [2]. The MIC is 4 µg/mL in assay [3]; 16 µg/mL in [4]; 128 µg/mL with Staphylococcus aureus [5]; over 128 µg/mL with Staphylococcus aureus [6]; 0.03 µg/mL against Streptococcus pneumoniae; 0.5 µg/mL against Staphylococcus aureus [7].

Turning to `Nc1nc(/C(=N\OCCF)C(=O)N[C@@H]2C(=O)N3C(C(=O)[O-])=C(Sc4nc(-c5cccnc5)cs4)CC[C@H]23)cs1.[Na+]`, the MIC was 0.25 µg/mL against Escherichia coli; 2 µg/mL in the assay with Enterobacter cloacae; 0.015 µg/mL against Haemophilus influenzae; 0.03 µg/mL in the assay on Klebsiella; 64 µg/mL against Pseudomonas aeruginosa [1]; over 128 µg/mL against Pseudomonas aeruginosa [2]. Further, the MIC in assay [3] is 0.5 µg/mL; in assay [4], 2 µg/mL; in the assay with Staphylococcus aureus [5] it was 8 µg/mL; against Staphylococcus aureus [6] it was 32 µg/mL; against Streptococcus pneumoniae, under 0.008 µg/mL; against Staphylococcus aureus [7], 0.25 µg/mL.

As to `Cn1ccnc1SC1=C(C(=O)[O-])N2C(=O)[C@@H](NC(=O)/C(=N/OCCF)c3csc(N)n3)[C@H]2CC1.[Na+]`, the MIC in the assay on Escherichia coli was 0.5 µg/mL; in the assay with Enterobacter cloacae it was 4 µg/mL; with Haemophilus influenzae, 0.03 µg/mL; against Klebsiella it was 0.06 µg/mL; against Pseudomonas aeruginosa [1], over 128 µg/mL; with Pseudomonas aeruginosa [2] it was over 128 µg/mL. Besides, the MIC in assay [3] was 8 µg/mL; in assay [4], 32 µg/mL; with Staphylococcus aureus [6] it was over 128 µg/mL; against Streptococcus pneumoniae, under 0.008 µg/mL; in the assay with Staphylococcus aureus [7], 4 µg/mL.

Turning to `Nc1nc(/C(=N\OCCF)C(=O)N[C@@H]2C(=O)N3C(C(=O)[O-])=C(Sc4nc(C(=O)O)cs4)CC[C@H]23)cs1.[Na+]`, the MIC was 0.25 µg/mL in the assay on Escherichia coli; 4 µg/mL in the assay on Enterobacter cloacae; 0.015 µg/mL against Haemophilus influenzae; 0.25 µg/mL against Klebsiella; 128 µg/mL in the assay on Pseudomonas aeruginosa [1]; over 128 µg/mL against Pseudomonas aeruginosa [2]. Further, the MIC in assay [3] is 4 µg/mL; in assay [4] it was 8 µg/mL; in the assay with Staphylococcus aureus [6], over 128 µg/mL; in the assay with Streptococcus pneumoniae, 0.015 µg/mL; against Staphylococcus aureus [7], 2 µg/mL.

Take `Nc1nc(/C(=N\OCCF)C(=O)N[C@@H]2C(=O)N3C(C(=O)[O-])=C(Sc4nnc(O)c(O)n4)CC[C@H]23)cs1.[Na+]`: the MIC with Escherichia coli is 0.06 µg/mL; in the assay with Enterobacter cloacae it was 0.5 µg/mL; in the assay on Haemophilus influenzae, 0.03 µg/mL; in the assay on Klebsiella, 0.06 µg/mL; with Pseudomonas aeruginosa [1] it was over 128 µg/mL; with Pseudomonas aeruginosa [2], over 128 µg/mL. The MIC was 8 µg/mL in [3]; 32 µg/mL in assay [4]; over 128 µg/mL with Staphylococcus aureus [6]; 0.06 µg/mL in the assay with Streptococcus pneumoniae; 4 µg/mL against Staphylococcus aureus [7].
